Measured values: BindingDB's records for doi:10.1016/j.ejmech.2016.03.016 (Peking University, 2016)
pEC50: −log10 of the molar value.

Target: Neuronal acetylcholine receptor subunit alpha-7 (Homo sapiens, UniProt P36544)
Assay: Agonist activity at human alpha7 nAChR expressed in xenopus oocytes preincubated for 10 mins followed by acetylcholine addition by patch clamp electrophysiological assay

Neuronal acetylcholine receptor subunit alpha-7, sequence (P36544 whole entry): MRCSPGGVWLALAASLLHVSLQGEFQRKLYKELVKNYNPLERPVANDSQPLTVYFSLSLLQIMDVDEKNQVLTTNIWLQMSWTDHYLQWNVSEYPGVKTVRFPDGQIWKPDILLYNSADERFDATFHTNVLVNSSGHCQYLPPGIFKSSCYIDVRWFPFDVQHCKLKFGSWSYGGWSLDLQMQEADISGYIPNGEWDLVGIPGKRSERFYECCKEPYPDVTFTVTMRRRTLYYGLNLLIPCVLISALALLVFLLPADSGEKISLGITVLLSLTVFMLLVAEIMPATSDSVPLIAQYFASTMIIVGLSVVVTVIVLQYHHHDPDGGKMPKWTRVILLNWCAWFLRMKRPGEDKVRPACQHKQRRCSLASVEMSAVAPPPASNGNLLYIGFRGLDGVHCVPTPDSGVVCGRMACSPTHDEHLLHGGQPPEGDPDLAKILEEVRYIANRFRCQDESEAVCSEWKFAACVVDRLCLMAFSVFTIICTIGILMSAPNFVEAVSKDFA

With `O=C(N[C@H]1CN2CCC1CC2)c1cc2cccc(Br)n2c1` the pEC50 was 5.75.
